According to patent US20040259853A1, “Methods for preventing acute clinical vascular events in a subject” (The Trustees of Columbia University, priority 2000, published 2004):
Where a SMILES comes first, the peptide text is derived from it. [ ]: non-standard residue; d: D form. Nle = CCCC[C@H](N)C(=O)O

Columns and labels:
ABCA1 protein = assay: ABCA1 immunoblot of total and cell-surface protein in cholesterol-loaded macrophages; assay type: cell-based, mouse; settings: for decrease in ABCA1 protein in free cholesterol-loaded macrophages: 50 μM; for decrease in ABCA1 protein in FC-loaded macrophages: calpeptin 40 μM, PD150606 25 μM (data not shown)
Procedure: Macrophages were pre-incubated for 14 h with 50 μg/ml acetyl-LDL in DMEM, 0.2% BSA, in the absence (CE) or presence (FC) of 58035. The cells were then incubated for 5 h with 100 μg/ml acetyl-LDL in DMEM, 0.2% BSA, in the absence or presence of 58035, respectively, with no further additions (Control) or in the presence of 10 μg/ml cycloheximide, 50 μM ALLN, or 50 μM lactacystin as indicated. Aliquots of cell lysates were then assayed for ABCA1 and β-actin protein by immunoblot analysis.
Macrophages were pre-incubated for 14 h with 50 μg/ml acetyl-LDL in DMEM, 0.2% BSA, in the absence (CE) or presence (FC) of 58035. […] Aliquots of total cell protein (top panel) or cell-surface protein (bottom panel) were then subjected to immunoblot analysis for ABCA1 and the standards β-actin or β1-integrin.
Macrophage monolayers in 35-mm dishes were washed with ice-cold PBS 3 times and then incubated with ice-cold PBS containing 0.5 mg/ml NHS—SS-biotin (Pierce) for 30 minutes at 4° C. After washing 5 times with ice-cold PBS containing 20 mM Tris-HCl, pH 8.0, the cells were scraped into PBS and pelleted by centrifugation. The pelleted macrophages were lysed in 50 μl RIPA buffer (0.5% sodium deoxycholate, 0.1% SDS, 1% Triton X-100, 20 mM Tris, 150 mM NaCl, and 5 mM EDTA, pH 8) containing 1 mM PMSF. […] of the lysate were subjected directly to 4-20% gradient SDS-polyacrylamide gel electrophoresis (SDS-PAGE) for determination of total ABCA1. The rest of the cell lysate was affinity-purified to isolate biotinylated proteins. Briefly, the cell lysates were diluted to 150 μl in RIPA buffer and incubated with 50 μl immobilized streptavidin agarose (Pierce), which was pre-washed three times with RIPA buffer at 0° C. for 2 h with gentle shaking. The agarose was pelleted by centrifugation using a microcentrifuge at 5,000 rpm for 2 min; the pellet was resuspended in 1 ml RIPA buffer, and the process was repeated 5 times. The agarose was resuspended 30 μl SDS-PAGE loading buffer containing 330 mM β-mercaptoethanol at 37^6C for 15 min and subjected to SDS-PAGE as above. ABCA1 and β-integrin were detected by Western blot using anti-ABCA1 and anti-β-integrin anti-sera. The blots were reprobed with anti-β-actin antibody, which detected no actin signal, thus verifying that no cytosolic protein was biotinylated by the procedure.
Peritoneal macrophages were lysed in RIPA buffer containing 1 mM PMSF. Nuclei were removed by centrifugation at 3000×g for 10 min at 4° C. […] For Western blot detection of ABCA1, anti-ABCA1 antiserum was used. Signals were detected using HRP-conjugated secondary anti-bodies (Bio-Rad) and ECL (Amersham Pharmacia Biotech). The membranes were reprobed with anti-β actin monoclonal antibody or anti-β1-integrin anti-serum for the proper internal controls. The relative intensities of the bands were determined by densitometry.

[1] = system: unfolded protein response (UPR); assay: Immunoblot analysis of UPR markers (CHOP, PERK, IRE1α, XBP-1) in macrophages; settings: 58035 alone, 5 h (FIG. 16B, lane 2)
Procedure: For detection of PERK, nuclei-free cell extracts were immunoprecipitated with anti-PERK antiserum and then immunoblotted, while for detection of ATF-4 and CHOP, immunoblots were performed on nuclear extracts. Lamin B, a nuclear protein, was used as the loading control.
Immunoprecipitation and immunoblot detection for IRE1α and PERK were conducted as described by Harding et al. (35). Immunoblot analyses of XBP-1, ATF4, and CHOP were carried out as described previously (36,38) with minor modifications. Briefly, cells were lysed in RIPA buffer to prepare whole-cell lysates or to prepare nuclei by centrifugation. The whole-cell lysates or nuclei were resuspended in 2×SDS-PAGE loading buffer and incubated at 95° C. for 10 min. Whole cell (100 μg) or nuclear lysates (20 μg) were electrophoresed on 4-20% gradient SDS-PAGE gels and electrotransferred to 0.22-μm nitrocellulose membrane using a Bio-Rad mini-transfer tank. After incubation with primary antibodies, the protein bands were detected with HRP-conjugated secondary antibodies (Bio-Rad) and ECL (Amersham Pharmacia Biotech). The membranes were reprobed with an anti-β-actin monoclonal antibody or an anti-lamin B serum to control for differences in loading.

[2] = system: ABCA1-mediated cholesterol efflux; assay: 3H-cholesterol efflux to apoA-I from free cholesterol-loaded macrophages; assay type: cell-based, mouse; settings: for cholesterol efflux to apoA-I from FC-loaded NPC+/− macrophages: 200 μM, 18 h apoA-1 incubation (FIG. 9D)
Procedure: Peritoneal macrophages from C57 mice were incubated for 5 h with 100 μg/ml ^3H-cholesterol-labeled acetyl-LDL in DMEM, 0.2% BSA, in the presence of 10 μg/ml 58035.
Acetyl-LDL (800 μg) was incubated with 10 μCi ^3H-cholesterol for 30 min at 37° C., followed by addition of 8 ml of DMEM, 0.2% BSA. The macrophages were incubated with this medium for 5 h, washed 3 times with PBS, and then incubated with DMEM, 0.2% BSA for 15 min at 37° C. After washing with PBS, the macrophages were incubated with DMEM, 0.2% BSA, containing either 15 μg/ml apoAI or 20 μg/ml HDL2. At the indicated time points, 100 μl of media was removed and centrifuged for 5 min at 14,000 rpm to pellet cellular debris. The radioactivity in this fraction of media was quantitated by liquid scintillation counting. After the last time point, the remainder of the media was removed, and the cells were dissolved in 0.5 ml of 0.1 N NaOH containing 0.5% sodium dodecylsulfate (5 h at room temperature). A 100 μl-aliquot of the cell lysate was counted, and the percent efflux was calculated as (media cpm)[…](cell +media cpm)×100. Total protein in the cell lysate was determined using the Bio-Rad DC protein assay kit. Note that there was no statistical difference in cellular cpm or protein between cholesteryl ester- and free cholesterol-loaded macrophages.

[3] = system: ABCA1 transporter activity (phospholipid efflux to apoA-I); assay: 3H-phospholipid efflux to apoA-I from free cholesterol-loaded macrophages; assay type: cell-based, mouse; settings: 15 min at 37° C.
Procedure: Aliquots of free cholesterol-loaded cells were incubated for 15 min at 37° C. in the absence or presence of 0.5% or 0.2% […] (CD). This treatment removes about 30% of total cellular cholesterol. All cells were then chased with media containing 15 μg/ml apoA-I for 3.33 h and phospholipid efflux was measured as in FIG. 6C.
Macrophages were labeled with ^3H-choline (5 μCi/ml) in DMEM, 10% FBS, for 24 h. After washing three times with PBS, the macrophages were incubated with 100 μg/ml acetyl-LDL+58035 in DMEM, 0.2% BSA, for 5 h. The cells were then incubated with 15 μg/ml apoA-1 in DMEM, 0.2% BSA, for the indicated time periods. ^3H-choline-containing phospholipids in aliquots of the medium were extracted in chloroform:methanol (2:1, v/v), and those remaining in the cells in hexane:isopropyl alcohol (3:2, v/v). The radioactivity was measured by scintillation counting.

## CCCC[C@@H](C=O)NC(=O)[C@H](CC(C)C)NC(=O)[C@H](CC(C)C)NC(C)=O [ALLN] (Ac-Leu-Leu-[Nle]-aldehyde)
ABCA1 protein; 5 h (FIG. 8B)
  decrease in ABCA1 protein in free cholesterol-loaded macrophages: blocked the decrease in ABCA1

## O=C(O)/C(S)=C/c1ccc(I)cc1 [PD150606]
ABCA1 protein
  decrease in ABCA1 protein in FC-loaded macrophages: did not affect the decrease in ABCA1

## CCCC[C@@H](C=O)NC(=O)[C@H](CC(C)C)NC(=O)OCc1ccccc1 [calpeptin]
ABCA1 protein
  decrease in ABCA1 protein in FC-loaded macrophages: did not affect the decrease in ABCA1

## CCCCCCCCCC[Si](C)(C)CCC(=O)NC(Cc1ccc(C)cc1)c1ccccc1 (stereo not shown) [compound 58035, 3-[decyldimethylsilyl]-N-[2-(4-methylphenyl)-1-phenylethyl] propanamide]
[1]
  PERK activation in macrophages: partially activate PERK

## C[C@@H]1C[C@@H]([C@H](O)CC2CC(=O)NC(=O)C2)C(=O)[C@@H](C)C1 [cycloheximide]
ABCA1 protein; 10 μg/ml cycloheximide, 5 h (FIG. 8B)
  decrease in ABCA1 protein in free cholesterol-loaded cells: insensitive

## COc1ccc(Cl)cc1C(=O)NCCc1ccc(S(=O)(=O)NC(=O)NC2CCCCC2)cc1 [glyburide]
[2]
  cholesterol efflux to apoA-I from FC-loaded NPC+/− macrophages: effectively blocked

## CN(C)CCCN1c2ccccc2CCc2ccccc21 [imipramine]
ABCA1 protein; low concentrations
  ABCA1 protein expression in free cholesterol-loaded cells: markedly enhance
[2]; FC-loaded macrophages (FIGS. 11A, 11B)
  induction of cholesterol efflux to ApoA-1: marked ability to induce cholesterol efflux to ApoA-1
[2]; optimal low doses, FC-loaded macrophages (FIG. 12A)
  restoration of ABCA1-dependent efflux: restored ABCA1-dependent efflux

## CC(=O)N[C@@H](CSC(=O)[C@]1([C@@H](O)C(C)C)NC(=O)[C@H](C)[C@@H]1O)C(=O)O [lactacystin]
ABCA1 protein; 5 h (FIG. 8B)
  decrease in ABCA1 protein in free cholesterol-loaded macrophages: blocked the decrease in ABCA1

## [Na+].[Na+].[Na+].[O]=[V]([O-])([O-])[O-] [ortho-vanadate, sodium orthovanadate]
[2]
  cholesterol efflux to apoA-I from FC-loaded NPC+/− macrophages: effectively blocked

## methyl-β-cyclodextrin
[3]; 0.5% or 0.2% (FIG. 6E)
  defect in phosphatidylcholine efflux to apoA-I of free cholesterol-loaded cells: reversed
[3]; 0.5% or 0.2%, FC-loaded cells
  removal of total cellular cholesterol: about 30%
